# Assay results reported in patent US20250090540A1, “PI3K-ALPHA INHIBITORS AND METHODS OF USE THEREOF” (Relay Therapeutics, Inc., priority 2021, published 2025).
# Where two headings read alike, the source gives them in different places.
# Assays:
# [1] = molecular target: H1047R PIK3CA enzyme (Homo sapiens, UniProt P42336, H1047R); experiment: ADP-Glo Biochemical PIK3CA Kinase Assay
# [2] = cells; details: Homo sapiens, MCF-10A, read-out: MCF10A I50
# [3] = ADP-Glo biochemical PIK3CA kinase assay
# H1047R PIK3CA enzyme, sequence (P42336 whole entry H1047R): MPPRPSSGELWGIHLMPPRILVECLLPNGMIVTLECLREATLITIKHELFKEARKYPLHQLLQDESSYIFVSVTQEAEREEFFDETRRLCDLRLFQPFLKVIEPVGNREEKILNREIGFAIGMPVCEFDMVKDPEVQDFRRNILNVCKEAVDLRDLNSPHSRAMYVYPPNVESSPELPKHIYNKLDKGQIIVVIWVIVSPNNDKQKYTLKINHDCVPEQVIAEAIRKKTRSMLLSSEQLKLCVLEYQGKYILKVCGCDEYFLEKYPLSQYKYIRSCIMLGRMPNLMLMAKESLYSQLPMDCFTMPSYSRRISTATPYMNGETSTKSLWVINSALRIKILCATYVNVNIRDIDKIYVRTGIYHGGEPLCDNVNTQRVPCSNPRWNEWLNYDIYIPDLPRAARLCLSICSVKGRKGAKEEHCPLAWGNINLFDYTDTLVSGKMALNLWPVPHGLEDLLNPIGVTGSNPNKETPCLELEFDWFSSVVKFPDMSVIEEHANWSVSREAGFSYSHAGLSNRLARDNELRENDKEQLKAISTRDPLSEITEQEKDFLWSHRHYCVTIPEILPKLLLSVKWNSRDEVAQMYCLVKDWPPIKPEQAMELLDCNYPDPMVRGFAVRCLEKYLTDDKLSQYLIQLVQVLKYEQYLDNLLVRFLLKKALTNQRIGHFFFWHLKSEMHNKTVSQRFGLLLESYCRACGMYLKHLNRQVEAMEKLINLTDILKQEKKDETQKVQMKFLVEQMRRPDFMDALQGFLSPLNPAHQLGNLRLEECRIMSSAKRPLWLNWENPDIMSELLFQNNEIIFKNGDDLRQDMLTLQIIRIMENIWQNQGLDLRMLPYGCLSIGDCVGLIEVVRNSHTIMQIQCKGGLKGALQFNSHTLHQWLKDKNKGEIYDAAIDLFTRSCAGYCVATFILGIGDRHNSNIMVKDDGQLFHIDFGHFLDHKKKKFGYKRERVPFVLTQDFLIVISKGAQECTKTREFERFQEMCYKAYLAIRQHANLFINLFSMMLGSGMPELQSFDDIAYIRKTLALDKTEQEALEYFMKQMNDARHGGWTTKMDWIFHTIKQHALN
# H1047R PIK3CA enzyme, sequence (P27986 whole entry partner): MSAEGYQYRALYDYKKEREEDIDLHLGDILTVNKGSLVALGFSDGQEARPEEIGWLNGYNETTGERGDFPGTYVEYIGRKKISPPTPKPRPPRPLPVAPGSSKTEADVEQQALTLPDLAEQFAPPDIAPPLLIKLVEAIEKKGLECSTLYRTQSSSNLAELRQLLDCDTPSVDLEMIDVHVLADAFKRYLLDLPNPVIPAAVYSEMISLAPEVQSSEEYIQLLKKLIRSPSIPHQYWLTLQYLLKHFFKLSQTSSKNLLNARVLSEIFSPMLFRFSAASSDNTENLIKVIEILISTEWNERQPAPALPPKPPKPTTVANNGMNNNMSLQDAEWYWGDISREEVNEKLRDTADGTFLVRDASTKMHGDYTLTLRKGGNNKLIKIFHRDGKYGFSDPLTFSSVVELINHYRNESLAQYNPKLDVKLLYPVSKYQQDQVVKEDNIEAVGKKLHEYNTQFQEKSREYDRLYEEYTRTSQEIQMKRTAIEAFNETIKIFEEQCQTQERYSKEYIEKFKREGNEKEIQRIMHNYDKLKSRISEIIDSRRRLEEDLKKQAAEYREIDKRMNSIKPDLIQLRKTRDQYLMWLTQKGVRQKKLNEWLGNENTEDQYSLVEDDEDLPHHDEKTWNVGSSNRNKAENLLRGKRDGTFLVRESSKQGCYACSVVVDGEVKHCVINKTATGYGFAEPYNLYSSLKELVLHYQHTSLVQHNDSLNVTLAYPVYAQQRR
"IC50 [1, 3] [µM]",SMILES,also measured
,Cc1ccccc1Nc1ncc(C(=O)N[C@@H]2CC(=O)N(C)C2)cc1NC(=O)c1csc2ccccc12 (racemic) [I-326],IC50 [1]: 0.1 to 0.5 µM; IC50 [2]: 5 to 10 µM
1 to 10,CNC(=O)c1cnc(Nc2ccccc2C)c(NC(=O)Cc2noc3ccccc23)c1 [I-651],
1 to 10,CNC(=O)c1cnc(Nc2ccccc2C)c(NC(=O)c2noc3ccccc23)c1 [I-671],
1 to 10,Nc1ncc(C(=O)O)cc1NC(=O)c1csc2ccccc12 [I-673],
1 to 10,COC(=O)c1cnc(N)c(NC(=O)c2csc3ccccc23)c1 [I-674],
1 to 10,Nc1ncc(C(=O)NC2CC(F)(F)C2)cc1NC(=O)c1csc2ccccc12 [I-675],
1 to 10,Nc1ncc(C(=O)N[C@H]2C[C@@H](C(N)=O)C2)cc1NC(=O)c1csc2ccccc12 [I-689],
1 to 10,CC(NC(=O)c1cnc(N)c(NC(=O)c2csc3ccccc23)c1)c1cn[nH]c1 (stereo not drawn) [I-690],
1 to 10,Cc1ccccc1Nc1ncc(C(=O)N[C@H]2C[C@@H](C(=O)N(C)C)C2)cc1NC(=O)c1csc2ccccc12 [I-694],
0.5 to 1,Cc1ccccc1Nc1ncc(C(=O)NCc2ccc(Cl)cc2)cc1NC(=O)c1cc(F)cc(C(F)(F)F)c1 [I-702],
1 to 10,COc1cncc(CNC(=O)c2cnc(Nc3ccccc3C)c(NC(=O)c3cc(F)cc(C(F)(F)F)c3)c2)c1 [I-707],
0.5 to 1,CNC(=O)c1cnc(Nc2ccccc2C)c(NC(=O)c2ccc(C#N)c(C(F)(F)F)c2)c1 [I-710],
0.5 to 1,CNC(=O)c1cnc(Nc2ccccc2C)c(NC(=O)c2cc(F)c(C(F)(F)F)c(F)c2)c1 [I-717],
1 to 10,Cc1ccccc1Nc1ncc(C(=O)NCc2ncccn2)cc1NC(=O)c1cc(F)cc(C(F)(F)F)c1 [I-719],
1 to 10,COc1ccnc(CNC(=O)c2cnc(Nc3ccccc3C)c(NC(=O)c3cc(F)cc(C(F)(F)F)c3)c2)c1 [I-720],
1 to 10,CNC(=O)c1cnc(Nc2ccccc2C)c(NC(=O)c2ccc(F)c(F)c2)c1 [I-722],
1 to 10,CNC(=O)c1cnc(Nc2ccccc2C)c(NC(=O)c2ccc(C)c(F)c2)c1 [I-723],
1 to 10,COC(=O)CCS(=O)(=O)c1cnc(Nc2ccccc2C)c(NC(=O)c2cc(F)cc(C(F)(F)F)c2)c1 [I-728],
1 to 10,CNC(=O)c1cnc(Nc2nccc3[nH]ccc23)c(NC(=O)c2csc3ccccc23)c1 [I-729],
1 to 10,CNC(=O)c1cnc(Nc2cnccc2C)c(NC(=O)c2csc3ccccc23)c1 [I-730],
1 to 10,CNC(=O)c1cnc(Nc2ncccc2C(C)C)c(NC(=O)c2csc3ccccc23)c1 [I-731],
1 to 10,CNC(=O)c1cnc(Nc2c3c(nn2C)CCCC3)c(NC(=O)c2csc3ccccc23)c1 [I-732],
1 to 10,CNC(=O)c1cnc(Nc2ccc3c(c2)COC3)c(NC(=O)c2csc3ccccc23)c1 [I-733],
1 to 10,CCc1nccnc1Nc1ncc(C(=O)NC)cc1NC(=O)c1csc2ccccc12 [I-734],
1 to 10,CCn1nccc1Nc1ncc(C(=O)NC)cc1NC(=O)c1csc2ccccc12 [I-735],
1 to 10,CNC(=O)c1cnc(Nc2ccc3cnn(C)c3c2)c(NC(=O)c2csc3ccccc23)c1 [I-736],

"IC50 [1, 3] [µM]",SMILES,also measured
1 to 10,CNC(=O)c1cnc(Nc2ccnc3c2ccn3C)c(NC(=O)c2csc3ccccc23)c1 [I-737],
1 to 10,CNC(=O)c1cnc(Nc2ccc3c(c2)OCC3)c(NC(=O)c2csc3ccccc23)c1 [I-738],
1 to 10,CNC(=O)c1cnc(Nc2cncc(F)c2)c(NC(=O)c2csc3ccccc23)c1 [I-739],
1 to 10,CNC(=O)c1cnc(Nc2ccc3cccnc3c2)c(NC(=O)c2csc3ccccc23)c1 [I-740],
1 to 10,CNC(=O)c1cnc(Nc2cncc3ccccc23)c(NC(=O)c2csc3ccccc23)c1 [I-741],
1 to 10,CNC(=O)c1cnc(Nc2ncccc2C2CC2)c(NC(=O)c2csc3ccccc23)c1 [I-742],
1 to 10,CNC(=O)c1cnc(Nc2c3c(nn2C)CCC3)c(NC(=O)c2csc3ccccc23)c1 [I-743],
1 to 10,CNC(=O)c1cnc(Nc2ccc3c(c2)N(C)C(=O)CO3)c(NC(=O)c2csc3ccccc23)c1 [I-744],
1 to 10,Cc1ccccc1Nc1ncc(C(=O)NCc2cn(C)nc2C)cc1NC(=O)c1cc(F)cc(C(F)(F)F)c1 [I-746],
1 to 10,Cc1ccccc1Nc1ncc(C(=O)NCc2nnc3ccccn23)cc1NC(=O)c1cc(F)cc(C(F)(F)F)c1 [I-759],
0.5 to 1,CNC(=O)c1cnc(Nc2ccccc2C)c(NC(=O)c2cc(Cl)nc(C(F)(F)F)c2)c1 [I-762],
0.5 to 1,CNC(=O)c1cnc(Nc2ccccc2C)c(NC(=O)c2coc3c(F)cc(Cl)cc23)c1 [I-766],
1 to 10,Cc1ccccc1Nc1ncc(-c2ccn[nH]2)cc1NC(=O)c1cc(F)cc(C(F)(F)F)c1 [I-767],
0.5 to 1,CNC(=O)c1cnc(Nc2cccc3[nH]ccc23)c(NC(=O)c2csc3ccccc23)c1 [I-768],
1 to 10,Cc1ccccc1Nc1cc(=O)n(CCc2ccncn2)cc1NC(=O)c1csc2ccccc12 [I-769],
1 to 10,CC1COCCN1c1ncc(C(=O)N[C@H]2C[C@@H](C(N)=O)C2)cc1NC(=O)c1csc2ccccc12 (stereo partly drawn) [I-770],
1 to 10,COC1CN(c2ncc(C(=O)N[C@H]3C[C@@H](C(C)=O)C3)cc2NC(=O)c2csc3ccccc23)C1 [I-771],
1 to 10,CNC(=O)c1cnc(Nc2cc(F)ccc2Cl)c(NC(=O)c2csc3ccccc23)c1 [I-775],
1 to 10,CNC(=O)c1cnc(Nc2ccccc2C)c(N(CC(N)=O)C(=O)c2csc3ccccc23)c1 [I-776],
10 to 100,COc1cncc(CNC(=O)c2cc(NC(=O)c3csc4ccccc34)n(CC3CCC3)c(=O)c2)c1 [I-777],
10 to 100,Nc1c2c(nn1C(=O)c1cc(F)cc(C(F)(F)F)c1)CCCC2 [I-778],
1 to 10,Cc1nn(C(=O)c2cc(F)cc(C(F)(F)F)c2)c(N)c1-c1ccccc1 [I-779],
10 to 100,Nc1cnc(Nc2cc(F)ccc2Cl)c(NC(=O)c2cc(F)cc(C(F)(F)F)c2)c1 [I-780],
1 to 10,O=C(Nc1cnccc1-n1cccn1)c1cc(F)cc(C(F)(F)F)c1 [I-781],
1 to 10,CC(C)(O)c1cnc(Nc2cc(F)ccc2Cl)c(NC(=O)c2cc(F)cc(C(F)(F)F)c2)c1 [I-782],
10 to 100,Nc1cnc(Nc2cc(F)ccc2Cl)c(NC(=O)c2nsc3ccccc23)c1 [I-784],

"IC50 [1, 3] [µM]",SMILES,also measured
10 to 100,O=C(NCc1ccccc1CN1CCCCC1)c1cc(F)cc(C(F)(F)F)c1 [I-785],
10 to 100,O=C(Nc1cc(C2CC2)nn1-c1ccccc1)c1cc(F)cc(C(F)(F)F)c1 [I-786],
10 to 100,Cc1cccc(-n2nc(C)cc2NC(=O)c2cc(F)cc(C(F)(F)F)c2)c1 [I-787],
10 to 100,O=C(Nc1cc(C2CC2)nn1-c1ccccc1F)c1cc(F)cc(C(F)(F)F)c1 [I-788],
1 to 10,Cc1cc(NC(=O)c2cc(F)cc(C(F)(F)F)c2)n(-c2ccccc2F)n1 [I-789],
1 to 10,COc1nccc(NC(=O)c2cc(F)cc(C(F)(F)F)c2)c1Nc1ccccc1Cl [I-790],
1 to 10,Nc1cc(-c2ccc(F)cc2)nn1-c1nc2ccccc2[nH]1 [I-792],
0.1 to 0.5,N#Cc1cccc(NC(=O)c2cc(F)cc(C(F)(F)F)c2)c1Cc1ccccc1Cl [I-793],
10 to 100,O=C(Nc1ccn2cnnc2c1Nc1ccccc1Cl)c1cc(F)cc(C(F)(F)F)c1 [I-794],
10 to 100,"CNC(=O)c1cnc(Nc2cc(F)ccc2Cl)c(NC(=O)N2CCc3ccccc32)c1 [I-797, N-{2-[(2-chloro-5-fluorophenyl)amino]-5-(methylcarbamoyl)pyridin-3-yl}-2,3-dihydro-1H-indole-1-carboxamide]",
1 to 10,CNC(=O)c1cnc(Nc2ccccc2C)c(NC(=O)NC23C[C@H]4C[C@@H](C2)C[C@@H](C3)C4)c1 [I-798],
,CNC(=O)c1cnc(Nc2cc(F)ccc2Cl)c(NC(=O)NC23C[C@H]4C[C@@H](C2)C[C@@H](C3)C4)c1 [I-799],IC50 [1]: 10 to 100 µM
,"O=C(Nc1cc(-c2cnn(C(F)F)c2)cnc1Nc1cc(F)ccc1Cl)c1cc(F)cc(C(F)(F)F)c1 [I-803, N-(2-((2-chloro-5-fluorophenyl)amino)-5-(1-(difluoromethyl)-1H-pyrazol-4-yl)pyridin-3-yl)-3-fluoro-5-(trifluoromethyl)benzamide]",IC50 [1]: 1 to 10 µM
,O=C(Nc1cc(-c2ccc3ncnn3c2)cnc1Nc1cc(F)ccc1Cl)c1cc(F)cc(C(F)(F)F)c1 [I-804],IC50 [1]: 10 to 100 µM
,"CNC(=O)c1cnc(Nc2cc(F)ccc2Cl)c(Nc2nccc3c(Cl)cccc23)c1 [I-805, 6-((2-chloro-5-fluorophenyl)amino)-5-((5-chloroisoquinolin-1-yl)amino)-N-methylnicotinamide]",IC50 [1]: 10 to 100 µM
,O=C(Nc1ccnn1-c1ccccc1)c1cc(F)cc(C(F)(F)F)c1 [I-806],IC50 [1]: 10 to 100 µM
,O=C(Nc1cccc(=O)n1Cc1ccccc1Cl)c1csc2ccccc12 [I-807],IC50 [1]: 10 to 100 µM
,CNC(=O)c1cnc(Nc2cc(F)ccc2Cl)c(NC(=O)c2cc(F)cc(C(F)(F)F)c2)c1 [I-810],IC50 [1]: 10 to 100 µM
,O=C(Nc1cc(-c2ccc3ncnn3c2)cnc1Nc1cc(CO)ccc1Cl)c1cc(F)cc(C(F)(F)F)c1 [I-811],IC50 [1]: 10 to 100 µM
,CNC(=O)c1cnc(NC(CO)CCO)c(NC(=O)c2cc(F)cc(C(F)(F)F)c2)c1 (stereo not drawn) [I-814],IC50 [1]: 10 to 100 µM
,O=C1CCCC(c2nc3c(F)cc(C(F)(F)F)cc3[nH]2)N1Cc1cc(F)ccc1Cl (stereo not drawn) [I-815],IC50 [1]: 10 to 100 µM
,O=C(Nc1cc(-c2ccc3ncnn3c2)cnc1NC(CO)CCO)c1cc(F)cc(C(F)(F)F)c1 (stereo not drawn) [I-818],IC50 [1]: 10 to 100 µM
,"O=C1NCc2ccccc2C1c1ccccc1-c1nc2c(F)cc(C(F)(F)F)cc2[nH]1 (stereo not drawn) [I-820, 4-{2-[4-fluoro-6-(trifluoromethyl)-1H-1,3-benzodiazol-2-yl]phenyl}-1,2,3,4-tetrahydroisoquinolin-3-one]",IC50 [1]: 10 to 100 µM
,CNC(=O)c1cnc(-n2c(=O)ccc3ccccc32)c(NC(=O)c2cc(F)cc(C(F)(F)F)c2)c1 [I-822],IC50 [1]: 10 to 100 µM
,"CNC(=O)c1cc(NC(=O)c2cc(F)cc(C(F)(F)F)c2)c(Nc2cc(F)ccc2Cl)s1 [I-827, 5-((2-chloro-5-fluorophenyl)amino)-4-(3-fluoro-5-(trifluoromethyl)benzamido)-N-methylthiophene-2-carboxamide]",IC50 [1]: 0.5 to 1 µM
